Measured values as given in paper PMC4177882, “Inactivation and Unfolding of Protein Tyrosine Phosphatase from Thermus thermophilus HB27 during Urea and Guanidine Hydrochloride Denaturation” (PLoS ONE, 2014).
Where a name gives a salt, the structure may show the parent alone.

Target: T1, protein tyrosine phosphatase (PTPase) from Thermus thermophilus HB27 (Thermus thermophilus, UniProt Q72JF6)
T1 construct: gene TT_C0816; recombinant, expressed in E. coli BL21(DE3), purified to homogeneity; low molecular weight PTPase, CX5R(S/T) P-loop with Cys11; monomer in solution
T1 sequence (Q72JF6 entry or part of it): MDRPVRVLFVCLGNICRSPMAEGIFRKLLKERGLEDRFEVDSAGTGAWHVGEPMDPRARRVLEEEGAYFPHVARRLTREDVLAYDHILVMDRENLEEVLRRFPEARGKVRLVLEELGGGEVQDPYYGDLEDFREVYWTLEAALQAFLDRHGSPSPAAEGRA
Assay: phosphatase activity, absorbance at […] nm
Assay type: biochemical

Ki: 270 µM
SMILES: N=C(N)N [guanidine hydrochloride]
